The values that follow come from ChEMBL document CHEMBL1201862, “PubChem BioAssay data set” (2004).

For assay [1], the target named is 5'-AMP-activated protein kinase catalytic subunit alpha-1 (Homo sapiens, UniProt Q13131). Type of assay: functional.
Assay [2] concerns the target Phosphorylase b kinase gamma catalytic chain, liver/testis isoform (Homo sapiens, UniProt P15735). Type of assay: functional.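 Note: PHKG2 measured as one member of a kinome-wide kinase panel.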
Assay [3] concerns the target Serine/threonine-protein kinase pim-2 (Homo sapiens, UniProt Q9P1W9). The class given is functional.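 Note: value comes from a broad kinase panel profiling study in which PIM2 was one of the panel members.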
For assay [4], the target named is Cyclin-dependent kinase 9 (Homo sapiens, UniProt P50750). The class given is functional.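 Note: value from the CDK9 entry of a kinome-spanning kinase panel.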
In assay [5] the target is Serine/threonine-protein kinase 3 (Homo sapiens, UniProt Q13188). Type of assay: functional.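 Note: measured as one member of a kinome-wide kinase panel.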
Assay [6] concerns the target Dual specificity protein kinase CLK2 (Homo sapiens, UniProt P49760). The class given is functional.
The target in assay [7] is Cell division cycle 7-related protein kinase (Homo sapiens, UniProt O00311). Type of assay: functional.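 Note: value obtained from a kinome-wide kinase panel.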
Assay [8] deals with Glycogen synthase kinase-3 alpha (Homo sapiens, UniProt P49840). Type of assay: functional.
The target of assay [9] is T1, Tyrosine-protein kinase receptor TYRO3 (Homo sapiens, UniProt Q06418).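 Note: TYRO3 value obtained as one member of a kinome-wide profiling panel.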
T1 sequence (Q06418 whole entry): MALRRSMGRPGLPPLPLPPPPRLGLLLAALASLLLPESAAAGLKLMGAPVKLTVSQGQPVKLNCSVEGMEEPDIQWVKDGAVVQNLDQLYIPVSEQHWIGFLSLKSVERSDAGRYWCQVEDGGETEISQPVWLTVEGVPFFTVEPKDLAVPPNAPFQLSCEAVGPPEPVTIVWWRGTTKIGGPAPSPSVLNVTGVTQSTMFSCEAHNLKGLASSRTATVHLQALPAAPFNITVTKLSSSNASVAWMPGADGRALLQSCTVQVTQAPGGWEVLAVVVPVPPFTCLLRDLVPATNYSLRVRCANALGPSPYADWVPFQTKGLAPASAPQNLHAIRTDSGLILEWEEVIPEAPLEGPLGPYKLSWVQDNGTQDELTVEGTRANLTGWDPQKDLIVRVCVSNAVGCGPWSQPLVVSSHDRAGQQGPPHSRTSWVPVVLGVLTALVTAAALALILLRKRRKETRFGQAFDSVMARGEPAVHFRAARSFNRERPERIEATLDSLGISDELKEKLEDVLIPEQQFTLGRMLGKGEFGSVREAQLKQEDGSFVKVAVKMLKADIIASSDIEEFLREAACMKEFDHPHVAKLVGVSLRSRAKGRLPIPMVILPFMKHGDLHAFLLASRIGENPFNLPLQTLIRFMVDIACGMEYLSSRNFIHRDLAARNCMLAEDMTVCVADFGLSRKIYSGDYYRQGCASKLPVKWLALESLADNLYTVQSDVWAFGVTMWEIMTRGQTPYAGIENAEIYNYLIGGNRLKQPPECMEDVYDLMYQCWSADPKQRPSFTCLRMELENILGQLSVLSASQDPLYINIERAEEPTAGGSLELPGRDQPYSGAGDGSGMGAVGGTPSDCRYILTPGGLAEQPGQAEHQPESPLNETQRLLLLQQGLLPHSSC
Type of assay: functional.

Assay [10] has as its target Platelet-derived growth factor receptor alpha (Homo sapiens, UniProt P16234). In words: Navigating the Kinome. Panel member name: PDGFRA. The class given is functional.
Assay [11] has as its target MAP kinase-activated protein kinase 5 (Homo sapiens, UniProt Q8IW41). The class given is functional.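 Note: measured as one member of a kinome panel.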
The target of assay [12] is Protein kinase C iota type (Homo sapiens, UniProt P41743). Type of assay: functional.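 Note: measured within a kinome-wide kinase panel, PRKCI as panel member.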
The target in assay [13] is Homeodomain-interacting protein kinase 2 (Homo sapiens, UniProt Q9H2X6). Type of assay: functional.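 Note: measured within a kinome-wide kinase profiling panel, HIPK2 being one panel member.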
Assay [14] concerns the target Dual specificity tyrosine-phosphorylation-regulated kinase 4 (Homo sapiens, UniProt Q9NR20). Type of assay: functional.
In assay [15] the target is Fibroblast growth factor receptor 3 (Homo sapiens, UniProt P22607). Type of assay: functional.
The target in assay [16] is Calcium/calmodulin-dependent protein kinase type 1 (Homo sapiens, UniProt Q14012). Type of assay: functional.
In assay [17] the target is Calcium/calmodulin-dependent protein kinase type II subunit delta (Homo sapiens, UniProt Q13557). The class given is functional.
Assay [18] has as its target Proto-oncogene tyrosine-protein kinase ROS (Homo sapiens, UniProt P08922). Type of assay: functional.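 Note: ROS1 tested as one member of a kinome-wide kinase panel.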
Assay [19] has as its target Testis-specific serine/threonine-protein kinase 2 (Homo sapiens, UniProt Q96PF2). Type of assay: functional.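 Note: part of the Navigating the Kinome panel, target entry STK22B.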
For assay [20], the target named is Receptor tyrosine-protein kinase erbB-2 (Homo sapiens, UniProt P04626). In words: Navigating the Kinome. Panel member name: ERBB2. The class given is functional.
Assay [21] addresses Calcium/calmodulin-dependent protein kinase type II subunit gamma (Homo sapiens, UniProt Q13555). Type of assay: functional.
The target in assay [22] is Tyrosine-protein kinase JAK3 (Homo sapiens, UniProt P52333). The class given is functional.
The subject of another assay is Vero. Description: viability of Vero cells under compound – cytotoxicity control for flavivirus capping enzyme inhibitors (AID 588742). As to conditions: Chlorocebus sabaeus. Type of assay: functional.
The next assay addresses Genome polyprotein (dengue virus type 2, UniProt P29990). Description: flavivirus cap methylation enzyme inhibition – biochemical, confirmation dose response, primary screen (AID 588689). Type of assay: functional.
Assay [23] can be described thus: Trypanosoma cruzi growth suppression in host cells – NIH3T3 host cells, beta-gal luminescence, confirmation (AID 2044).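 Note: intracellular parasites grown in NIH/3T3 mouse fibroblasts as host cells; luminescent beta-galactosidase reporter signal from transgenic T. cruzi replicating inside host cells; inhibitors lower the luminescence signal.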 The class given is functional, cell-based.
The nature of assay [24]: Luminescence Cell-Based Dose Response HTS to Identify Inhibitors of 5'UTR Stem-Loop Driven Prion Protein mRNA Translation in H4 Neuroglioblastoma Cells. [Related pubchem assays: 1827 (Project Summary), 1813 (Primary HTS)]. Type of assay: functional.
Assay [25] addresses Macrophage colony-stimulating factor 1 receptor (Homo sapiens, UniProt P07333). Type of assay: functional.
For assay [26], the target named is Hepatocyte growth factor receptor (Homo sapiens, UniProt P08581). The class given is functional.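 Note: kinase panel profiling across the kinome, with MET as the panel member.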
The target in assay [27] is Mitogen-activated protein kinase 9 (Homo sapiens, UniProt P45984). The class given is functional.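 Note: value from a kinome panel profiling assay, MAPK9 panel entry.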

In general, Ki refers to a measure of affinity in units of concentration, obtained from inhibition or displacement. For orientation: CC50 means the concentration that lowers cell viability or growth by half. A word on the IC50: it is the concentration at which inhibition is half-maximal. By EC50 is commonly meant the concentration giving half of the maximal effect.

The source made the active and inactive calls.

Testis-specific serine/threonine-protein kinase 2, sequence (Q96PF2 whole entry): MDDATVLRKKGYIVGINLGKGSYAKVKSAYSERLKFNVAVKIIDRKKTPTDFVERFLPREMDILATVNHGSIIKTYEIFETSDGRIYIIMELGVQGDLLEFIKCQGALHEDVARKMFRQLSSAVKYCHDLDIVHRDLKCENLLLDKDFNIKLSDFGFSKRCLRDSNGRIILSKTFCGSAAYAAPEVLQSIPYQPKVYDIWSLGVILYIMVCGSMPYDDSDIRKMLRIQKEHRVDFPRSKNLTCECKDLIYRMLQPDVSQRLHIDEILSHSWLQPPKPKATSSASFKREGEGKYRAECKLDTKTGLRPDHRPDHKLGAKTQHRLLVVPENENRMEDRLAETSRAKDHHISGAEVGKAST
Dual specificity tyrosine-phosphorylation-regulated kinase 4, sequence (Q9NR20 whole entry): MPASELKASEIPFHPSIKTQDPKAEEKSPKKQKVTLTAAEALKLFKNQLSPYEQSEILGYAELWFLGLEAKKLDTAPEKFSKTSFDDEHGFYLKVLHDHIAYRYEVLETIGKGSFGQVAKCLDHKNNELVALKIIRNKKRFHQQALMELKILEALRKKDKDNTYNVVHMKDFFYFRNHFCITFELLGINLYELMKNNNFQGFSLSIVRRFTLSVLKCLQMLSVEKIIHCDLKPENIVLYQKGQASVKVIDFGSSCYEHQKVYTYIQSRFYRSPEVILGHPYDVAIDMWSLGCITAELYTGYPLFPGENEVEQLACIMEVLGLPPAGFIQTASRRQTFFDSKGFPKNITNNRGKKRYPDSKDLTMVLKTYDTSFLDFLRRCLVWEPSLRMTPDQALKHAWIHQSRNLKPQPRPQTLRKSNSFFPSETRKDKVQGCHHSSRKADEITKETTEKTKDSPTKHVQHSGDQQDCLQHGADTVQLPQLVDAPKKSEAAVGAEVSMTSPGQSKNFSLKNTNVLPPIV
Dual specificity protein kinase CLK2, sequence (P49760 whole entry): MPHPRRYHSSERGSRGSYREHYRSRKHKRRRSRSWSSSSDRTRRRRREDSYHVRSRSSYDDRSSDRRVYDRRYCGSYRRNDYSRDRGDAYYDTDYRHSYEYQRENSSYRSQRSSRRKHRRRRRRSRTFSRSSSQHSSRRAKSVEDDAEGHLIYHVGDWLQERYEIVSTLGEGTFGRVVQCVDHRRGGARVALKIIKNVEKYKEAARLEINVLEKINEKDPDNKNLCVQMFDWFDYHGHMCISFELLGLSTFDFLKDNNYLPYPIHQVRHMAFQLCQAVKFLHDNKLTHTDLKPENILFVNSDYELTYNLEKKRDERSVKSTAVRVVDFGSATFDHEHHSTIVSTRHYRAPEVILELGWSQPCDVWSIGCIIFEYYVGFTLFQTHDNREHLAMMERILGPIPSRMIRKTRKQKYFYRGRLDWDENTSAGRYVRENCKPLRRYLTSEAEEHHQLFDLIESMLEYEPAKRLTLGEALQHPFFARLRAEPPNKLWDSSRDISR
Calcium/calmodulin-dependent protein kinase type II subunit gamma, sequence (Q13555 whole entry): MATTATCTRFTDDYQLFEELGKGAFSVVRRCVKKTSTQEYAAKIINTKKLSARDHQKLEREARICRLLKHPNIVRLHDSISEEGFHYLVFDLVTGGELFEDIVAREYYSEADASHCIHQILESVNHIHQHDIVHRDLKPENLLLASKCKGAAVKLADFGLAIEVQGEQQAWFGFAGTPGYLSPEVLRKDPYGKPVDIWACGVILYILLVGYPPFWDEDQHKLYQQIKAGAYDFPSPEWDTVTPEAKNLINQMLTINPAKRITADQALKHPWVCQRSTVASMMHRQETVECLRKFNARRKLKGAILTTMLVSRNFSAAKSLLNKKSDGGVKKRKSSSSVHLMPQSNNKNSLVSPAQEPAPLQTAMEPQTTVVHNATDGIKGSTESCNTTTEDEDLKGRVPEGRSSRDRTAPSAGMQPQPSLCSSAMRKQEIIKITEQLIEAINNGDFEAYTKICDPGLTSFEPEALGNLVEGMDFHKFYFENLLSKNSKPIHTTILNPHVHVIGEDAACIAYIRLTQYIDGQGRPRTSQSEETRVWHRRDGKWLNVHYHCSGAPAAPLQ
MAP kinase-activated protein kinase 5, sequence (Q8IW41 whole entry): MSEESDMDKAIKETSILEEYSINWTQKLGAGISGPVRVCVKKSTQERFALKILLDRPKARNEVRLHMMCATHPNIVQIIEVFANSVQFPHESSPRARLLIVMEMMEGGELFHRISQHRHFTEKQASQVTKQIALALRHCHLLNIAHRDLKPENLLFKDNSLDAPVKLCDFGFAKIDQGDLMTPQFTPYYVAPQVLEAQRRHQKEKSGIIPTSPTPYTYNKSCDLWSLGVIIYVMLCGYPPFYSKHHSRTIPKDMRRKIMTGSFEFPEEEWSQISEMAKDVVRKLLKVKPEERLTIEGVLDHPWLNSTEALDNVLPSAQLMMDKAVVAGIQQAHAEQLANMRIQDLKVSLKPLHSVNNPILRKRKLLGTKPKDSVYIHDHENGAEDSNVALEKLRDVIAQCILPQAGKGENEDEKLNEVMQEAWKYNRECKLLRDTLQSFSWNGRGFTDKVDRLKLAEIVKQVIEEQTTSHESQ
Serine/threonine-protein kinase pim-2, sequence (Q9P1W9 whole entry): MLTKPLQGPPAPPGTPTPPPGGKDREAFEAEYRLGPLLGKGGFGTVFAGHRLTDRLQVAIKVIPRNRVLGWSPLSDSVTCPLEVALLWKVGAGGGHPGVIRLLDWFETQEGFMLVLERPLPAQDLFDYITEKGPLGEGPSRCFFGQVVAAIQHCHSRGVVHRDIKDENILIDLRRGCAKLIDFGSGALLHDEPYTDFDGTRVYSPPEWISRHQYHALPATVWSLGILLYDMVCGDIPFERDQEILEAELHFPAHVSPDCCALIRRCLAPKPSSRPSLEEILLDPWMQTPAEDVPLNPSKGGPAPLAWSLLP
Macrophage colony-stimulating factor 1 receptor, sequence (P07333 whole entry): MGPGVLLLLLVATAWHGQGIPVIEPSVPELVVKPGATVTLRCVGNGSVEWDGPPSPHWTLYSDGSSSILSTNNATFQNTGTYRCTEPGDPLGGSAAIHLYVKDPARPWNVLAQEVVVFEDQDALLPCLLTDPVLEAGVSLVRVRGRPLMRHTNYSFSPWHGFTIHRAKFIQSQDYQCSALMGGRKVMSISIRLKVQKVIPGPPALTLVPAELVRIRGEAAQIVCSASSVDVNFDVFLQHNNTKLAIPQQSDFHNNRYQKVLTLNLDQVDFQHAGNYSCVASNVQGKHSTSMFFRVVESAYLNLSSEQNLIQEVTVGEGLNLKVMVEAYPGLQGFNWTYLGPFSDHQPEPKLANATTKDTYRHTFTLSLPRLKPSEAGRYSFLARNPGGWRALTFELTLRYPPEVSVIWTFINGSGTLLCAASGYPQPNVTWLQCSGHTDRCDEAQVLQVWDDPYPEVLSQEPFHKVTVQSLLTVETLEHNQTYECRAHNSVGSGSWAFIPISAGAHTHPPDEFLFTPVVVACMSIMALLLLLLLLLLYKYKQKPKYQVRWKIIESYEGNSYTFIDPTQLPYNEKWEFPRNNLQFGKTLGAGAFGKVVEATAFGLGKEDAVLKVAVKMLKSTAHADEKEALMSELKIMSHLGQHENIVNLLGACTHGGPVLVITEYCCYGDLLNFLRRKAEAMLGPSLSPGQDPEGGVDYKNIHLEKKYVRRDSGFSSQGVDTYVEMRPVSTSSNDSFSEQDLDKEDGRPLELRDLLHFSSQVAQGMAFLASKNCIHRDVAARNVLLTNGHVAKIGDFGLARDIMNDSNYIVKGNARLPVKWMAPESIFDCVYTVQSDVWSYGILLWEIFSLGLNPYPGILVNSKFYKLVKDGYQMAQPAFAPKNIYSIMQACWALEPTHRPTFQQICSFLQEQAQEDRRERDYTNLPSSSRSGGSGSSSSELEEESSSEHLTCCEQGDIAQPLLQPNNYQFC
Cell division cycle 7-related protein kinase, sequence (O00311 whole entry): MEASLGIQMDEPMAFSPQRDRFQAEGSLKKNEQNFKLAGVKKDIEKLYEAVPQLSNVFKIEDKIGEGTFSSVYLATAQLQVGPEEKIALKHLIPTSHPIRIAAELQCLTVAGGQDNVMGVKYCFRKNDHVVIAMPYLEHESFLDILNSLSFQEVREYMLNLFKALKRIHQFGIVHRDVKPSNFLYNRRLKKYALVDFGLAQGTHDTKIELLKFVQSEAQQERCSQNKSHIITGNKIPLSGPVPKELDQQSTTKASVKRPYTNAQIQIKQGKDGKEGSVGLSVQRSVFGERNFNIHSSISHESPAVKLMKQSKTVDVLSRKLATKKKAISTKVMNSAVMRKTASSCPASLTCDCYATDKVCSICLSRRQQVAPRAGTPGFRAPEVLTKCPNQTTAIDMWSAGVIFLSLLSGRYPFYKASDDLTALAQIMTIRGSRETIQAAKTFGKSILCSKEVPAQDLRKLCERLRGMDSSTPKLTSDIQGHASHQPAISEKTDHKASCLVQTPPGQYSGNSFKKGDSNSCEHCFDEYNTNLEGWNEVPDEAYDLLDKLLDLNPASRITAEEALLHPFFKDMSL
Serine/threonine-protein kinase 3, sequence (Q13188 whole entry): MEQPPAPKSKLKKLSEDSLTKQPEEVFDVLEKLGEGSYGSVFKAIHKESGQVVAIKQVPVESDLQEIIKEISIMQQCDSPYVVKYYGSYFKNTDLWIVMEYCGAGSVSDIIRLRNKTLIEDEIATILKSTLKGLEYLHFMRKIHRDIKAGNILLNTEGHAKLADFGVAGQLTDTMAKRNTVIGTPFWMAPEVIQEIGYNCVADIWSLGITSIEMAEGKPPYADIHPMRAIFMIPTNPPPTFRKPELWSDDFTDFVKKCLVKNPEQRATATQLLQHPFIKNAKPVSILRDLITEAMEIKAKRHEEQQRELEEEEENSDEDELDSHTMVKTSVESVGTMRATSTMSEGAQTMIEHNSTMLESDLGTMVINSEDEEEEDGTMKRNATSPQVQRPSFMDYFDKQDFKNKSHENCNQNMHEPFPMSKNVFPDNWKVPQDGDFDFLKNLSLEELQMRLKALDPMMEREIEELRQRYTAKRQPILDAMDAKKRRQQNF

`COc1cc2c(cc1F)C(c1ccccc1Cl)=Nc1c(n[nH]c1C)N2` [RG-1530]: the Ki was 631 nM (active) in assay [1]; 3160 nM (active) in assay [2]; > 1580 nM (inactive) in assay [3]; > 1580 nM (inactive) in assay [4]; 39.8 nM (active) in assay [5]; 2510 nM (active) in [6]. Moreover, the Ki in assay [7] was > 1260 nM (inactive); in [8], 50.1 nM (active); in assay [9], > 2510 nM (inactive); in assay [10], 316 nM (active); in assay [11], > 1580 nM (inactive); in assay [12] it was > 5010 nM (inactive). Further, the Ki is > 3160 nM (inactive) in assay [13]; > 7940 nM (inactive) in assay [14]; 25.1 nM (active) in assay [15]; > 3160 nM (inactive) in assay [16]; > 6310 nM (inactive) in [17]; 20 nM (active) in assay [18]. Further, the Ki in assay [19] was 1000 nM (active); in assay [20], > 1580 nM (inactive); in [21], > 6310 nM (inactive); in [22], 79.4 nM (active).

As for `O=C(O)c1ccc(NC2=C(Cl)C(=O)c3ccccc3C2=O)cc1`, the CC50 in the assay on Vero was 28300 nM (active). The IC50 at Genome polyprotein was 7760 nM (active). Besides, in assay [23], the 50% effective concentration (EC50) is 2740 nM (active).

In the case of `O=C(O)c1ccc2c3c(ncnc13)-c1ccccc1C2=O`, the 50% effective concentration (EC50) in assay [24] was 1320 nM (active).

As for `Cc1nn(C)c2sc3c(=O)[nH]cnc3c12`, the Ki in assay [4] is > 63100 nM (inactive); in assay [25] it was > 63100 nM (inactive); in [8], 50100 nM (active); in assay [10], 100000 nM (active); in assay [26], > 31600 nM (inactive).

Regarding `Cc1ccc2nccc(NC(=O)Nc3cccc(C(F)(F)F)n3)c2c1`, the Ki in [1] was > 2510 nM (inactive); in assay [2], > 5010 nM (inactive); in assay [3], > 1580 nM (inactive); in assay [5] it was 158 nM (active); in assay [6] it was > 2000 nM (inactive); in [7] it was > 1260 nM (inactive). For the same compound, the Ki in assay [25] is > 2510 nM (inactive); in assay [9], > 2510 nM (inactive); in assay [27], > 3980 nM (inactive); in [11], > 1580 nM (inactive); in [12], > 5010 nM (inactive); in assay [13], 794 nM (active). The Ki in assay [14] is > 7940 nM (inactive); in [15], > 2000 nM (inactive); in assay [16], > 3160 nM (inactive); in assay [17], > 6310 nM (inactive); in assay [18], > 2000 nM (inactive); in assay [19], > 1580 nM (inactive). The Ki in assay [26] is > 3160 nM (inactive); in assay [20] it was > 1580 nM (inactive); in assay [21], > 6310 nM (inactive); in assay [22], > 3160 nM (inactive).

Turning to `Cc1c(/N=C2\C=CC(=O)c3ccccc32)c(=O)n(-c2ccccc2)n1C`, in the assay with Vero, the 50% cytotoxic concentration (CC50) is 20600 nM (active). Further, the IC50 on Genome polyprotein is 88600 nM (active).
